As a reminder, the melting point is the temperature, or range, at which the solid turns liquid.

Among the data in a melting point compilation (Tetko et al.) are melting point values, retold here.

On to `Cn1c(=O)c(C2=NNC(=O)C2=CNc2cccc3ccccc23)c(O)c2ccccc21`, for which the melting point came to 292 °C.
The figure for `CCOC(=O)c1c(N)sc(C)c1C` is 90 to 91 °C.
The figure for `CCCCCCCCC1CCCC1` is -44 °C; for `CSCCC(NC(C)=O)C(=O)O` (racemic) it is 115 °C.
Regarding `NC(=O)c1ccc(F)c(Cl)c1`, the melting point stood at 146 °C.
The molecule `COC(=O)c1cc2ccccc2cc1C(=O)OC` yielded a melting point of 49 °C.
Take `Fc1c(F)c(F)c(Sc2c(F)c(F)c(F)c(F)c2F)c(F)c1F`: the melting point was 87 °C.
The figure for `C#CC1(O)CCC2C3CCc4cc(O)ccc4C3C(OC)CC21C` (stereo not given) is 280 °C; for `C=CCc1ccccc1O` it is -6 °C.
The figure for `CCOC(=O)C=Cc1c[nH]c2ccccc12` is 120 °C.
`CC(C)(C)c1ccc(C(N)=S)cc1`: the melting point was 145 to 148 °C.
The value for `COC(=O)[C@@H](CC(=O)O)C1CCCCC1` was 47.9 °C; that for `Cc1nc2ccccc2nc1C` was 105 °C.
The value for `NC(=O)c1cccc2c1OCCO2` was 130 to 132 °C; that for `O=C(Nc1cc([N+](=O)[O-])ccc1C(=O)O)c1ccccc1` was 252 °C; that for `CN=C(N)c1cc(C(C)(C)C)c(O)c(C(C)(C)C)c1` was 280 to 281 °C.
The value for `CCCCCCCCCCCCCCCCCC(=O)Nc1ccc(O)cc1` was 134 °C; that for `COC(=O)CCC(C)C1CCC2C3C(OC(C)=O)CC4CC(=O)CCC4(C)C3CC(=O)C12C` (stereo not given) was 165 to 167 °C.
As to `NNC(=O)c1cncc(Br)c1`, the melting point lay in the range of 199 to 202 °C.
As to `NC(CC1CCCCC1)C(=O)O` (stereo not given), the melting point lay in the range of 322 to 328 °C.
The value for `COc1ccc(C(C(=O)NCc2ccccc2)N(Cc2ccc(C)o2)C(=O)CNC(=O)OC(C)(C)C)cc1OC` (stereo not given) was 177 °C; that for `O=C(O)CCCCC=C(c1ccccc1)c1cccnc1` was 114 °C; that for `COc1ccc(F)cc1C=O` was 41 to 46 °C.
The value for `Cc1cccc(C)c1NC(=O)CN(CC(=O)O)CC(=O)O` was 213 to 216 °C; that for `CCCOc1ccc(O)cc1` was 56.5 °C.
The figure for `O=C(NN=CC=Cc1ccc([N+](=O)[O-])o1)c1ccc([N+](=O)[O-])s1` is 236 °C.
`C=C1CC(=O)OC1=O` returned a melting point of 69 °C.
The value for `CNc1ccccc1OC` was 30 to 33 °C.
Molecule `O=C(c1ccccc1)c1ccsc1C(=O)O` registered a melting point of 152 °C.
The value for `Cc1ccc(/N=N/C2C(=O)NN(c3ccccc3)C2=O)cc1` (stereo not given) was 247 °C.
The value for `O=C(O)c1ccc(O)c(F)c1F` was 207 °C.
Regarding `O=C(O)C=Cc1ccccc1Cl`, the melting point was in the range of 209 to 212 °C.
Molecule `O=C1OC(=O)C23Cc4ccccc4CC12Cc1cc2c(cc1C3)CC2` (stereo not given) showed a melting point of 248 to 252 °C.
With `COc1ccc2c(OC)c3ccoc3nc2c1OC`, the melting point came out at 177 °C.
The value for `Brc1cc(Br)c(Oc2c(Br)cc(Br)c(Br)c2Br)c(Br)c1Br` was 206 °C; that for `Fc1cc(F)c(F)c(-c2c(F)c(F)cc(F)c2F)c1F` was 85 °C; that for `N#CCc1cccc(CC#N)c1F` was 75 to 77 °C.
The value for `NC(=O)c1cc([N+](=O)[O-])ccc1Cl` was 179 °C.
Molecule `Cc1cc(Cl)cc([N+](=O)[O-])c1` came in with a melting point of 61 °C.
For `O=C(O)C1CC(=O)N(CCc2ccc(Cl)cc2)C1` (stereo not given), the melting point is 148 to 150 °C.
Molecule `Cc1cc(C(C)(C)C)c(C)cc1O` came in with a melting point of 71.2 °C.
As to `NC(CCS(=O)(=O)O)C(=O)O` (racemic), the melting point stood at 273 °C.
The value for `COc1ccc(C(C)NCC(OC)OC)cc1O` (stereo not given) was 88 °C; that for `CCCCc1ccc(NC(=O)c2ccc(OC)cc2)cc1` was 146 to 148 °C; that for `CCOC(=O)C1=NN(c2ccccc2)C(=O)C1CC1C(=O)N(c2ccccc2)N=C1C(=O)OCC` (stereo not given) was 179 °C.
The value for `Cc1cc(C)c2c(N)n[nH]c2n1` was 280 °C.
Regarding `CCCCCCCCCCCC(=O)CC`, the melting point came to 34 °C.
The value for `CC(=O)NS(=O)(=O)c1ccc(NC(=O)c2ccccc2C(=O)O)cc1` was 196 °C.
`C=C(C)c1cc(=O)c(O)ccc1CC=C(C)C` came in with a melting point of 71.5 °C.
The value for `Cc1ccc(S(=O)(=O)c2ncsc2SCC(N)=O)cc1` was 204 to 206 °C.
For `COC1C=CC23c4cc5c(cc4COC2(O)CN(C)C3C1)OCO5` (stereo not given), the melting point amounted to 210 °C.
With `COc1cc(S(C)=O)ccc1-c1nc2ncccc2[nH]1` (stereo not given), the melting point came to 204 °C.
For `O=C(OCCC(OC(=O)c1ccccc1)c1ccccc1)c1ccccc1` (stereo not given), the melting point was determined as 51 °C.
The value for `O=C1CCCCCCCCCCCC1` was 25 °C; that for `Cc1c(N)cc([N+](=O)[O-])cc1[N+](=O)[O-]` was 174 °C.
The value for `CC(=O)c1csc(-c2ccc(OC(F)(F)F)cc2)n1` was 45.5 to 48 °C.
On to `Cc1cc(C2(c3cc(C)c(O)c(CN(CC(=O)O)CC(=O)O)c3)OC(=O)c3ccccc32)cc(CN(CC(=O)O)CC(=O)O)c1O`, for which the melting point worked out at 181 °C.
The figure for `O=C(O)c1cccc2nsnc12` is 198 to 200 °C; for `COc1ccc(C=CC(=O)Cl)c(Cl)c1OC` it is 86 to 88 °C.
The figure for `CCCCOC(=O)CCCCC(=O)OCCCC` is -32.4 °C; for `CN1CCN(c2ccccc2N)CC1` it is 101 to 102 °C.
Molecule `O=C(O)c1sc(-c2ccccc2)nc1-c1ccccc1` came in with a melting point of 212 to 216 °C.
The molecule `O=C(C=Cc1ccccc1)C=Cc1ccccc1` showed a melting point of 111 °C.
The figure for `CC1=CCC(=O)O1` is 18 °C; for `C=CC1=C(C(=O)O)N2C(=O)C(NC(=O)C(=NOCC(=O)O)c3csc(N)n3)C2SC1` (stereo not given) it is 222 °C; for `Cc1cc(C2(c3ccc(O)c(C)c3)OS(=O)(=O)c3ccccc32)ccc1O` it is 290 °C.
The figure for `CC(C=CC=C(C)C(=O)O)=CC=CC=C(C)C=CC=C(C)C(=O)O` is 286 °C.
The molecule `O=C(O)C(F)(F)C(F)(F)C(F)(F)C(F)(F)C(F)(F)C(F)(F)C(F)(F)C(F)(F)F` returned a melting point of 65 °C.
`CC(=O)CC(c1ccco1)c1c(O)c2ccccc2oc1=O` (stereo not given) had a melting point of 124 °C.
In turn, `O=C(C=Cc1ccc(Br)cc1)c1ccc(Cl)cc1` displayed a melting point of 167 to 168 °C.
In the case of `Cc1nc(=O)c2ccccc2[nH]1`, the melting point was 232 °C.
The value for `O=C(O)c1ccc(Cn2cnc3ccccc32)cc1` was 260 to 262 °C.
In turn, `O=Cc1ccc(-c2ccc(C(F)(F)F)cn2)cc1` had a melting point of 91 to 93 °C.
The figure for `BrCc1ccc(-c2ccsc2)cc1` is 107 to 109 °C; for `CC(=O)Oc1c(-c2ccccc2)n(C(C)=O)c2cc([N+](=O)[O-])c(/C(Cl)=C/c3ccccc3)cc12` it is 57 to 58 °C.
